Source: patent US20250122193A1, “NOVEL PYRIDOCARBAZOLIUM COMPOUNDS AND MEDICAL USES THEREOF” (MyCural Therapeutics, priority 2021, published 2025)

Key:
ODC1 expression = assay: MYC target gene ODC1 expression by qPCR; format: cell-based; conditions: 5 μM
Experimental: (§1) FIG. 1: MYCMI-7 (Compound Example 1) inhibits the MYC:MAX interaction in cells, bind MYC in vitro, and blocks MYC function. A) Molecular structure of MYCMI-7. B-E) split Gaussia luciferase (GLuc) assay. MYC or MYCN and MAX Gluc constructs were co-transfected into HeLa cells together with a firefly luciferase vector. 24 hours post transfection cells were treated with compounds, and after another 17-24 hours cells were harvested and both GLuc and firefly luciferase activities were measured. The mean of three different experiments is shown. Treatment with: B) 5 μM of MYCMI-7, 64 μM 10058-F4 or 5 μM JQ1, respectively, C) 6.5 μM MYCMI-7 on cells expressing MYC:MAX GLuc vs. GCN4:GCN4 GLuc, D) 5 μM MYCMI-7 and 5 μM ellipticine. E) 5 μM MYCMI-7 for various time points. F) in situ proximity ligation assay (isPLA). […] MYC:GAL4 was used as negative control in the isPLA assay. G) Quantification of isPLA dots. (H) Co-immunoprecipitation (co-IP) of endogenous MYC and MAX proteins from MCF7 cells after treatment with 5 μM MYCMI-7 at various times. IP=immunoprecipitation; W=western blot. […] J) MYC target gene ODC1 expression after treatment with 5 μM MYCMI-7, quantified by qPCR. […] L) Recombinant MYC bHLHZip protein domain immobilized onto a CM5 chip was subjected to various concentrations of MYCMI-7 and the complex of MYCbHLHZip-MYCMI-7 was measured as response units by SPR. […]

[1] = biological target: T1, recombinant bHLHZip domain of the MYC protein (Homo sapiens, UniProt P01106); assay: surface plasmon resonance (SPR), MYC bHLHZip; format: binding
T1 construct: using the recombinant bHLHZip domain of the MYC protein; 6xHis (N); made in house; host or cells: E. coli BL21 (DE3)
Experimental: as §1

MYCN = biological target: T2, MYCN (Homo sapiens, UniProt P04198); assay: MYCN expression in Kelly neuroblastoma cells; format: cell-based
T2 construct: endogenous in cells; host or cells: Kelly neuroblastoma cells
Experimental: For western blot equal amounts of proteins ([…]) were separated on a 4-12% SDS-PAGE gel. Proteins were transferred to Immobilion-P membrane (Millipore) and detected by immunostaining and chemoluminescence (Immobilion western HRP substrate; Millipore). For immunoprecipitations 500-1000 μg of protein was used. […] Briefly, cells were crosslinked with 1% formaldehyde on ice for 6 minutes. Nuclear chromatin was sonicated on ice to fragments from 0.3 kb to 0.5 kb. Nuclear chromatin equivalent to 2.5×10^7 cells was immunoprecipitated with 2 μg antibody.

[2] = test system: primary normal human epidermal melanocytes (NHEM); assay: cell growth and trypan blue viability, NHEM; format: cell-based; conditions: 72 hours
Experimental: FIG. 4: MYCMI-7 induces apoptosis in malignant cells and growth arrest in normal cells. A) Cell cycle distribution analysis by flow cytometry of MYC-regulated P493-6 cells and normal rat embryo fibroblasts (REFs). Left panel, P493-6 synchronized in G0 by 24 hours treatment of […] doxycycline. Doxycycline was removed and the cells were harvested 48 hours after the addition of fresh medium containing DMSO or 5 μM MYCMI-7. Right panel, flow cytometry analysis of normal REFs treated with DMSO or 5 μM MYCMI-7. B) Apoptosis assay using the Cell Death Detection ELISA^plus kit. Left panel, immortalized Rat1 fibroblasts with different MYC status after 24 hours of 5 μM MYCMI-7 treatment, middle panel and right panels, normal REFs and normal peripheral blood lymphocytes, respectively, after 24 and 48 hours of 5 μM MYCMI-7 treatment. C) Measurement of viability and apoptosis by Apo-Tox Glo Triplex assay in A375 melanoma cells after 3 days of treatment with MYCMI-7 with the indicated concentrations. […] E) NHDFs treated with 3 μM MYCMI-7 for 72 hrs. Viability was measured by trypan blue exclusion assay. F) Cell growth measured with Cyt62 assay of primary normal human epidermal melanocytes (NHEM) treated for 72 hours with MYCMI-7, G) Viability measured by trypan blue exclusion assay of NHEM after treatment for 72 hours with MYCMI-7.

[3] = test system: MYCN-amplified SK-N-DZ neuroblastoma xenograft; assay: SK-N-DZ neuroblastoma xenograft
[4] = test system: MCF-7 breast carcinoma cells; assay: RNA-seq gene set enrichment analysis; conditions: 5 μM, 24 hrs
[5] = 6.25 mg/kg intratumoral twice a week

T1 sequence (P01106 368-454 limits assumed): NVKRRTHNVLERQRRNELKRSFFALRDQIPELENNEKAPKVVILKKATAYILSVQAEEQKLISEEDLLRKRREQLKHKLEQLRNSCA
T2 sequence (P04198 whole entry): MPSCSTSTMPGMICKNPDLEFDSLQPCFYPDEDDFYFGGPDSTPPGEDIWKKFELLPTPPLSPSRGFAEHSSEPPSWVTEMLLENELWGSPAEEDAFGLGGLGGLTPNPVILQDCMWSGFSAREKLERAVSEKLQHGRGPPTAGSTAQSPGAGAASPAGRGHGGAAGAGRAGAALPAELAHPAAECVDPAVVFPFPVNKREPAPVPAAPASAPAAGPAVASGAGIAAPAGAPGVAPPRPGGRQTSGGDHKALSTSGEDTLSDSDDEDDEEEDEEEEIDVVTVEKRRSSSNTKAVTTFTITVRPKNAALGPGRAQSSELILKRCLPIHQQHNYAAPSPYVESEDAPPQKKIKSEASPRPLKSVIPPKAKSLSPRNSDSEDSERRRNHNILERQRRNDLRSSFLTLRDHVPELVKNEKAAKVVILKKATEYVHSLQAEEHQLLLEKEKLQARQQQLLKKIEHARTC

SMILES: CCN(CC)CC[n+]1ccc2c(C)c3[nH]c4ccccc4c3c(C)c2c1 [MYCMI-7, 2-(5,11-Dimethyl-6H-25-pyrido[4,3-b]carbazol-2-yl)-N,N-diethylethanamine bromide]
- ODC1 expression (ODC1 expression): reduced ODC1 expression
- binding to recombinant MYC by SPR [1]: binds directly to MYC
- Kd ([1]; SPR, Langmuir 1:1 analysis): ~4 µM
- Expression of MYCN (MYCN): reduced
- cell death (trypan blue) [2]: did not induce cell death
- metabolic activity [2]: reduced metabolic activity
- survival [3, 5]: significantly increased survival
- tumor growth [3, 5]: reduced tumor growth
- H&E staining of tumor tissue ([3]; mouse, in vivo): massive apoptosis and/or necrosis as well as hemorrhage
- MYCN expression in tumor cells (IHC) ([3]; mouse, in vivo): strong reduction in MYCN expression
- GSEA of differentially expressed genes: MYC and E2F target genes [4]: downregulation
